{RR} = two arginine residues at the PNA terminus
How the values were obtained:
[1] = test system: PBMC cells; test: Safety assessment by trypan blue assay in PBMC; type: cell-based; conditions: 500-4000 nM, 48 hours
Description: Control is PBS treated PBMC cells. n=3, data represented as mean±standard error mean (SEM).
Safety assessment by trypan blue assay […] blood mononuclear cells (PBMC) (ATCC® PCS-800-011™) were purchased from ATCC (Virginia, USA). The cells were regularly tested for Mycoplasma contamination using MycoAlert™ Mycoplasma detection kit (Lonza). All the cells used in the experiment were passaged less than 2 times. 10,000 PBMC cells were seeded in a 96 well plate. The cells were treated with 500 nM, 1000 nM, 2000 nM and 4000 nM PNA-155 and γtcPNA-155 for 48 hrs in an incubator. The dead cells were examined with trypan blue and further counted using an automated cell counter (Bio-rad).

[2] = test system: U2932 subcutaneous tumors; test: Tumor growth in U2932 derived xenograft model; type: in vivo, NSG mice; conditions: intra-tumoral injections days 0, 7, 14
Description: Mouse tumor xenograft: Female NSG mice (NOD.Cg-Prkdcscid Il2rgtm1Wjl/SzJ, strain 005557) weighing 20-23 g were procured from Jackson laboratories. 1×10^7 U2932 cells suspended in RPMI-1640 medium were injected subcutaneously in the right and left flank of 6-week-old NSG mice. The mice developed a small bump in 2 weeks. When the tumor volume reached 100-200 mm^3, the mice were randomly assigned to the treatment group (n=6 per group).
(§1) RNA and Protein extraction from tumor samples: The mice were injected intra-tumorally with 1 mg kg-1 dose of PNA-155, γtcPNA-155, γPNA-155, Scr-γtcPNA-155 or were untreated. The injections were repeated two additional times after 1 week each. The length, breadth, and depth of the tumors were measured daily using a vernier caliper. The mice were euthanized when the tumor volumes reached 2000 mm^3. The resected tumor sections were finely minced using a sterile blade and suspended in dissociation media (4 ml) comprising of RPMI-1640, 1.2 mg/ml dispase, and 0.5 mg/ml collagenase for 90 mins at 500 rpm at 37° C. The dissociated tumors were washed with buffer saline at 2500 rpm (4 mins) at 4° C. and then suspended in 0.25% trypsin for 4 mins at room temperature. RPMI 1640 media was added to the trypsinized tumor mass, and the cells were passed through a 70 um filter. The cells were centrifuged at 2500 rpm for 4 mins at 4° C. The cell pellet was then suspended in 1×RBC lysis buffer (Sigma) and incubated on ice for 10 mins. PBS was added to the cells and the cells were passed through a 40 um filter. The cells were centrifuged at 2500 rpm for 4 mins at 4° C. The cell pellet was resuspended in 0.5% BSA in PBS. The mouse cells were removed from the tumor cells using a mouse cell depletion kit (Miltenyi Biotec) according to the manufacturer's protocol. The enriched tumor cells from each tumor sample were divided into two fractions. RNA for gene expression analysis was extracted from one tumor fraction by the same procedure as mentioned earlier. The protein for western blot analysis was extracted from the second fraction using the method described above.
For the efficacy study, each mouse received three intra-tumoral injections of either γtcPNA-155, γPNA-155 or PNA-155 on days 0, 7, 14. We noticed that the control and scrambled treated tumors reached 2000 mm^3 much faster during our study, so we could not inject a third time in these mice. […] In contrast, as stated earlier, there was no effect on the control and scrambled PNA control on the tumor volume.

[3] = test system: miR-155; test: miR-155 gene expression in U2932 tumor samples after in vivo treatment; set-up: species or system NSG mice; conditions: U2932 xenograft, intra-tumoral
Description: FIGS. 22A-D show in vivo gene expression and protein level analysis. (22A) miR-155 gene expression levels in U2932 tumor samples after in vivo treatment with indicated PNAs. Data was normalized with average control U6 (n=4, data represented as mean±standard error mean). ***p<0.001 (22B) Gene expression level of downstream target genes of miR-155: MCL1 in U2932 tumor samples after treatment with total 3 mg kg-1 dose of Scr-γtcPNA-155, PNA-155, γPNA-155 and γtcPNA-155 and normalized with average control GAPDH (n=3, data represented as mean±SEM), unpaired two-tailed t-test was performed for analysis). *p<0.05, **p<0.01 (22C) Representative western blot of Mcl-1 protein and its quantification (n=3 technical replicate) in U2932 tumor samples treated with total 3 mg kg-1 dose of Scr-γtcPNA-155, PNA-155 and γtcPNA-155. Data is represented as mean±SEM and unpaired two-tailed t-test was performed for analysis. *p<0.05. The relative protein levels were determined from the band intensity using ImageJ software and normalized relative to loading control and treatment control. (22D) Gene expression level of tumor suppressor proteins (FOXO3A, CUX1, SOCS1, CSF1R, JARID2, SHIP1, PICALM, PDCD4, BACH1, CASP3) in U2932 tumor samples after treatment with total 3 mg kg-1 dose of Scr-γtcPNA-155, PNA-155, γPNA-155 and γtcPNA-155 and normalized with average control GAPDH (n=3, data represented as mean±SEM, unpaired two-tailed t-test was performed for statistical analysis). *p<0.05, **p<0.01.
as §1, with “The mouse cells were removed from the tumor cells using a mouse cell depletion kit (Miltenyi Biotec) according to the manufacturer's protocol. The enriched tumor cells from each tumor sample were divided into two fractions. RNA for gene expression analysis was extracted from one tumor fraction by the same procedure as mentioned earlier. The protein for western blot analysis was extracted from the second fraction using the method described above.” left out

Substance | viability of PBMC cell lines [1] | tumor growth / tumor volume [2] | decrease in miR-155 gene expression in tumors [3] [%]
γtcPNA-155: serine gamma tail-clamp anti-miR-155 PNA, RR-TJJJJ-OOO-ACCCCTATCACGATTAGCATTAA-RR, SEQ ID NO: 3 (all peptide nucleic acid (PNA); serine gamma PNA, tail-clamp TJJJJ via linkers, Arg-Arg at both ends) | did not notice a significant reduction in viability | reduced the tumor growth | 90
PNA-155: conventional full-length regular PNA (23mer), RR-ACCCCTATCACGATTAGCATTAA-RR, SEQ ID NO: 1 (all peptide nucleic acid (PNA), 5' {RR}, 3' {RR}) [reference compound] | did not notice a significant reduction in viability | reduced the tumor growth | 75
